Earlier results on 1 substance are cited in patent publication US12290506B2, “Compositions and formulations for use of a PK inhibitor for the prevention, treatment, and improvement of skin diseases, conditions, and disorders” (DermBiont, Inc., priority 2022, dated 2025).

This data set deals with UV induced neo-melanogenesis. Conditions: topical application, guinea pig model.

bisindolylmaleimide: the UV induced neo-melanogenesis result is “inhibit UV induced neo-melanogenesis”.
